pIC50: −log10 of the molar value.
Test system: HCT116 cells
Assay: HCT116 cytotoxic activity assay (Alamar Blue, 72 h)
Type: cell-based
Details: Homo sapiens, HCT-116, 72 h compound exposure
Method: Representative compounds of this invention were tested for cytotoxicity using the above-described assay procedure with the following results: […]

[1] = greater than 500 nM but less than or equal to 2 μM

`N#Cc1cc(Oc2ccc(Nc3cc(-c4ccoc4)nc(N)n3)cc2)ccn1` [Example 228, 4-(4-{[2-amino-6-(3-furyl)pyrimidin-4-yl]amino}phenoxy)pyridine-2-carbonitrile 4-(4-{[6-amino-2-(3-furyl)pyrimidin-4-yl]amino}phenoxy) pyridine-2-carbonitrile] showed a pIC50 (less than or equal to 500 nM) of at least 6.30.

`N#Cc1cc(Oc2ccc(Nc3cc(-c4ccc(N)cc4)nc(N)n3)cc2)ccn1` [Example 229, 4-(4-{[2-amino-6-(4-aminophenyl)pyrimidin-4-yl]amino}phenoxy) pyridine-2-carbonitrile 4-(4-{[6-amino-2-(4-aminophenyl)pyrimidin-4-yl]amino}phenoxy)pyridine-2-carbonitrile] showed a pIC50 (less than or equal to 500 nM) of at least 6.30.

For `COc1ccc(-c2cc(Nc3ccc(Oc4ccnc(C(N)=O)c4)cc3)nc(N)n2)cn1` [Example 230, 4-(4-{[2-amino-6-(6-methoxypyridin-3-yl)pyrimidin-4-yl]amino}phenoxy) pyridine-2-carboxamide], the pIC50 [1] was 5.70 to 6.30.

`CSc1ccc(-c2cc(Nc3ccc(Oc4ccnc(C#N)c4)cc3)nc(N)n2)cc1` [Example 231, 4-[4-({2-amino-6-[4-(methylthio)phenyl]pyrimidin-4-yl}amino)phenoxy]pyridine-2-carbonitrile] was tested, and the pIC50 [1] was 5.70 to 6.30.

Work on `CN(C)c1ccc(-c2cc(Nc3ccc(Oc4ccnc(C#N)c4)cc3)nc(N)n2)cc1` [Example 232, 4-[4-({2-amino-6-[4-(dimethylamino)phenyl]pyrimidin-4-yl}amino)phenoxy]pyridine-2-carbonitrile] yielded a pIC50 [1] of 5.70 to 6.30.

`COc1ccc(OC)c(-c2cc(Nc3ccc(Oc4ccnc(C#N)c4)cc3)nc(N)n2)c1` [Example 233, 4-(4-{[2-amino-6-(2,5-dimethoxyphenyl)pyrimidin-4-yl]amino}phenoxy)pyridine-2-carbonitrile] gave a pIC50 (less than or equal to 500 nM) of at least 6.30.

With `COc1cccc(-c2cc(Nc3ccc(Oc4ccnc(C#N)c4)cc3)nc(N)n2)c1` [Example 234, 4-(4-{[2-amino-6-(3-methoxyphenyl)pyrimidin-4-yl]amino}phenoxy) pyridine-2-carbonitrile] the pIC50 (less than or equal to 500 nM) was at least 6.30.

Molecule `N#CCc1ccc(-c2cc(Nc3ccc(Oc4ccnc(C#N)c4)cc3)nc(N)n2)cc1` [Example 235, 4-[4-({2-amino-6-(4-(cyanomethyl)phenyl]pyrimidin-4-yl}amino)phenoxy]pyridine-2-carbonitrile] has a pIC50 [1] of 5.70 to 6.30.

`N#Cc1cc(Oc2ccc(Nc3cc(-c4cccnc4)nc(N)n3)cc2)ccn1` [Example 236, 4-{4-[(2-amino-6-pyridin-3-ylpyrimidin-4-yl)amino]phenoxy} pyridine-2-carbonitrile] showed a pIC50 (greater than 2 μM) of under 5.70.

Molecule `COc1ncc(-c2cc(Nc3ccc(Oc4ccnc(C#N)c4)cc3)nc(N)n2)c(OC)n1` [Example 237, 4-{4-[(2-amino-2′,4′-dimethoxy-4,5′-bipyrimidin-6-yl)amino]phenoxy} pyridine-2-carbonitrile] has a pIC50 (greater than 2 μM) of under 5.70.

`N#Cc1cc(Oc2ccc(Nc3cc(-c4cccc(N)c4)nc(N)n3)cc2)ccn1` [Example 238, 4-(4-{[2-amino-6-(3-aminophenyl)pyrimidin-4-yl]amino}phenoxy) pyridine-2-carbonitrile] gave a pIC50 (less than or equal to 500 nM) of at least 6.30.

`N#Cc1cc(Oc2ccc(Nc3cc(-c4cccs4)nc(N)n3)cc2)ccn1` [Example 239, 4-(4-{[2-amino-6-(2-thienyl)pyrimidin-4-yl]amino}phenoxy) pyridine-2-carbonitrile] gave a pIC50 [1] of 5.70 to 6.30.

In the case of `N#Cc1cc(Oc2ccc(Nc3cc(-c4cccc(F)c4)nc(N)n3)cc2)ccn1` [Example 240, 4-(4-{[2-amino-6-(3-fluorophenyl)pyrimidin-4-yl]amino}phenoxy) pyridine-2-carbonitrile], the pIC50 (less than or equal to 500 nM) was at least 6.30.

`N#Cc1cc(Oc2ccc(Nc3cc(-c4ccccc4F)nc(N)n3)cc2)ccn1` [Example 241, 4-(4-{[2-amino-6-(2-fluorophenyl)pyrimidin-4-yl]amino}phenoxy) pyridine-2-carbonitrile] showed a pIC50 (less than or equal to 500 nM) of at least 6.30.

`N#Cc1cc(Oc2ccc(Nc3cc(-c4ccc(Cl)cc4)nc(N)n3)cc2)ccn1` [Example 242, 4-(4-{[2-amino-6-(4-chlorophenyl)pyrimidin-4-yl]amino}phenoxy) pyridine-2-carbonitrile] gave a pIC50 [1] of 5.70 to 6.30.

`N#Cc1cc(Oc2ccc(Nc3cc(-c4ccccc4N)nc(N)n3)cc2)ccn1` [Example 243, 4-(4-{[2-amino-6-(2-aminophenyl)pyrimidin-4-yl]amino}phenoxy) pyridine-2-carbonitrile] gave a pIC50 [1] of 5.70 to 6.30.

Work on `N#Cc1cc(Oc2ccc(Nc3cc(-c4cccc(C(F)(F)F)c4)nc(N)n3)cc2)ccn1` [Example 244, 4-[4-({2-amino-6-[3-(trifluoromethyl)phenyl]pyrimidin-4-yl}amino)phenoxy]pyridine-2-carbonitrile] yielded a pIC50 (greater than 2 μM) of under 5.70.

Molecule `COc1ccc(C(C)C)cc1-c1cc(Nc2ccc(Oc3ccnc(C#N)c3)cc2)nc(N)n1` [Example 245, 4-(4-{[2-amino-6-(5-isopropyl-2-methoxyphenyl)pyrimidin-4-yl]amino}phenoxy)pyridine-2-carbonitrile] has a pIC50 [1] of 5.70 to 6.30.

Molecule `Cc1ccccc1-c1cc(Nc2ccc(Oc3ccnc(C#N)c3)cc2)nc(N)n1` [Example 246, 4-(4-{[2-amino-6-(2-methylphenyl)pyrimidin-4-yl]amino}phenoxy) pyridine-2-carbonitrile] has a pIC50 (less than or equal to 500 nM) of at least 6.30.

With `N#Cc1cc(Oc2ccc(Nc3cc(-c4ccc(F)cc4F)nc(N)n3)cc2)ccn1` [Example 247, 4-(4-{[2-amino-6-(2,4-difluorophenyl)pyrimidin-4-yl]amino}phenoxy)pyridine-2-carbonitrile] the pIC50 [1] was 5.70 to 6.30.

With `N#Cc1cc(Oc2ccc(Nc3cc(-c4cccc(CO)c4)nc(N)n3)cc2)ccn1` [Example 248, 4-[4-({2-amino-6-[3-(hydroxymethyl)phenyl]pyrimidin-4-yl}amino)phenoxy]pyridine-2-carbonitrile] the pIC50 [1] was 5.70 to 6.30.

Molecule `Cc1ccc(-c2cc(Nc3ccc(Oc4ccnc(C#N)c4)cc3)nc(N)n2)cc1` [Example 249, 4-(4-{[2-amino-6-(4-methylphenyl)pyrimidin-4-yl]amino}phenoxy) pyridine-2-carbonitrile] has a pIC50 (less than or equal to 500 nM) of at least 6.30.

Molecule `Cc1cccc(-c2cc(Nc3ccc(Oc4ccnc(C#N)c4)cc3)nc(N)n2)c1` [Example 250, 4-(4-{[2-amino-6-(3-methylphenyl)pyrimidin-4-yl]amino}phenoxy) pyridine-2-carbonitrile] has a pIC50 (less than or equal to 500 nM) of at least 6.30.

With `N#Cc1cc(Oc2ccc(Nc3cc(-c4ccsc4)nc(N)n3)cc2)ccn1` [Example 251, 4-(4-{[2-amino-6-(3-thienyl)pyrimidin-4-yl]amino}phenoxy) pyridine-2-carbonitrile] the pIC50 (less than or equal to 500 nM) was at least 6.30.

`Cc1ccc(-c2cc(Nc3ccc(Oc4ccnc(C#N)c4)cc3)nc(N)n2)cc1N` [Example 252, 4-(4-{[2-amino-6-(3-amino-4-methylphenyl)pyrimidin-4-yl]amino}phenoxy)pyridine-2-carbonitrile] showed a pIC50 (less than or equal to 500 nM) of at least 6.30.

Work on `N#Cc1cc(Oc2ccc(Nc3cc(-c4ccc(Cl)c(Cl)c4)nc(N)n3)cc2)ccn1` [Example 253, 4-(4-{[2-amino-6-(3,4-dichlorophenyl)pyrimidin-4-yl]amino}phenoxy)pyridine-2-carbonitrile] yielded a pIC50 (greater than 2 μM) of under 5.70.

With `NC(=O)c1cc(Oc2ccc(Nc3cc(-c4cccc(N)c4)nc(N)n3)cc2)ccn1` [Example 254, 4-(4-{[2-amino-6-(3-aminophenyl)pyrimidin-4-yl]amino}phenoxy) pyridine-2-carboxamide] the pIC50 (less than or equal to 500 nM) was at least 6.30.

Molecule `NC(=O)c1cc(Oc2ccc(Nc3cc(-c4cccs4)nc(N)n3)cc2)ccn1` [Example 255, 4-(4-{[2-amino-6-(2-thienyl)pyrimidin-4-yl]amino}phenoxy) pyridine-2-carboxamide] has a pIC50 (greater than 2 μM) of under 5.70.

`NC(=O)c1cc(Oc2ccc(Nc3cc(-c4cccc(F)c4)nc(N)n3)cc2)ccn1` [Example 256, 4-(4-{[2-amino-6-(3-fluorophenyl)pyrimidin-4-yl]amino}phenoxy) pyridine-2-carboxamide] was tested, and the pIC50 [1] was 5.70 to 6.30.

`NC(=O)c1cc(Oc2ccc(Nc3cc(-c4ccc(Cl)cc4)nc(N)n3)cc2)ccn1` [Example 257, 4-(4-{[2-amino-6-(4-chlorophenyl)pyrimidin-4-yl]amino}phenoxy) pyridine-2-carboxamide] was tested, and the pIC50 [1] was 5.70 to 6.30.

`NC(=O)c1cc(Oc2ccc(Nc3cc(-c4cccc(C(F)(F)F)c4)nc(N)n3)cc2)ccn1` [Example 258, 4-[4-({2-amino-6-[3-(trifluoromethyl)phenyl]pyrimidin-4-yl}amino)phenoxy]pyridine-2-carboxamide] showed a pIC50 [1] of 5.70 to 6.30.

Molecule `CCCCc1ccc(-c2cc(Nc3ccc(Oc4ccnc(C(N)=O)c4)cc3)nc(N)n2)cc1` [Example 259, 4-(4-{[2-amino-6-(4-butylphenyl)pyrimidin-4-yl]amino}phenoxy) pyridine-2-carboxamide] has a pIC50 (less than or equal to 500 nM) of at least 6.30.

Molecule `NC(=O)c1cc(Oc2ccc(Nc3cc(-c4ccc(-c5ccccc5)c(F)c4)nc(N)n3)cc2)ccn1` [Example 260, 4-(4-{[2-amino-6-(2-fluorobiphenyl-4-yl)pyrimidin-4-yl]amino}phenoxy) pyridine-2-carboxamide] has a pIC50 (greater than 2 μM) of under 5.70.

With `CCc1cccc(-c2cc(Nc3ccc(Oc4ccnc(C(N)=O)c4)cc3)nc(N)n2)c1` [Example 261, 4-(4-{[2-amino-6-(3-ethylphenyl)pyrimidin-4-yl]amino}phenoxy) pyridine-2-carboxamide] the pIC50 (less than or equal to 500 nM) was at least 6.30.

`COc1ccc(C(C)C)cc1-c1cc(Nc2ccc(Oc3ccnc(C(N)=O)c3)cc2)nc(N)n1` [Example 262, 4-(4-{[2-amino-6-(5-isopropyl-2-methoxyphenyl)pyrimidin-4-yl]amino}phenoxy)pyridine-2-carboxamide] gave a pIC50 (less than or equal to 500 nM) of at least 6.30.

Work on `Cc1ccccc1-c1cc(Nc2ccc(Oc3ccnc(C(N)=O)c3)cc2)nc(N)n1` [Example 263, 4-(4-{[2-amino-6-(2-methylphenyl)pyrimidin-4-yl]amino}phenoxy) pyridine-2-carboxamide] yielded a pIC50 (less than or equal to 500 nM) of at least 6.30.

Work on `NC(=O)c1cc(Oc2ccc(Nc3cc(-c4ccc(F)cc4F)nc(N)n3)cc2)ccn1` [Example 264, 4-(4-{[2-amino-6-(2,4-difluorophenyl)pyrimidin-4-yl]amino}phenoxy)pyridine-2-carboxamide] yielded a pIC50 (less than or equal to 500 nM) of at least 6.30.

Reference: patent publication US7582645B2, “Pyrimidine derivatives for treatment of hyperproliferative disorders” (Bayer Pharmaceuticals Corporation, priority 2003, dated 2009)
